Source: patent US20240132480A1, “INHIBITORS OF MYCOBACTERIUM TUBERCULOSIS LIPOAMIDE DEHYDROGENASE” (Cornell University, priority 2021, published 2024)
pIC50: −log10 of the molar value. Like-named read-outs stand apart in the source and are kept apart here.

Assays:
[1] = microsomes
Mtb Lpd = Mtb Lpd (Mycobacterium tuberculosis (strain ATCC 25618 / H37Rv), UniProt P9WHH9); type: biochemical; conditions: for pIC50: read-out: LPD IC50; for IC50: 30 min preincubation, read-out: LPD IC50 (μM) w/ 30 min preincubation

Row | Structure (SMILES) | Human Liver Microsome Stability [1] [µL/min/mg] | pIC50 (Mtb Lpd) | IC50 (Mtb Lpd) [µM]
1 | Cc1cc(S(=O)(=O)N2CCC[C@@H](C(=O)Nc3ccc4c(c3)OCCN4C3COC3)C2)c2[nH]ncc2c1 [Example 170, N-1-((5-methyl-1H-indazol-7-yl)sulfonyl)-N-(4-(oxetan-3-yl)-3,4-dihydro-2H-benzo[b][1,4]oxazin-7-yl)piperidine-3-carboxamide] | 34 | 7.29 | –
2 | CN(CC(=O)Nc1ccc2c(c1)OCCN2C1CCOCC1)S(=O)(=O)c1cc(C(F)F)cc2cn[nH]c12 [Example 171, 2-((5-(difluoromethyl)-N-methyl-1H-indazole)-7-sulfonamido)-N-(4-(tetrahydro-2H-pyran-4-yl)-3,4-dihydro-2H-benzo[b][1,4]oxazin-7-yl)acetamide] | 102 | 7.11 | –
3 | CN(CC(=O)Nc1ccc2c(c1)OCCN2C1COC1)S(=O)(=O)c1cc(C2(O)CC2)cc2cn[nH]c12 [Example 173] | 60 | 6.39 | –
4 | CN(CC(=O)Nc1ccc2c(c1)OCCN2C1CCOCC1)S(=O)(=O)c1cc(C2(O)CC2)cc2cn[nH]c12 [Example 174] | 131 | 6.26 | –
5 | CN(CC(=O)Nc1ccc2c(c1)OCCN2C1CCOCC1)S(=O)(=O)c1cc(C(F)F)cc2c(F)[nH]nc12 [Example 175, 2-((5-(difluoromethyl)-3-fluoro-N-methyl-1H-indazole)-7-sulfonamido)-N-(4-(tetrahydro-2H-pyran-4-yl)-3,4-dihydro-2H-benzo[b][1,4]oxazin-7-yl)acetamide] | 166 | 7.05 | –
6 | Cc1cc(S(=O)(=O)N(C)CC(=O)Nc2ccn(C)c(=O)c2)c2n[nH]c(Cl)c2c1 [Example 176, 2-((3-chloro-N,5-dimethyl-1H-indazole)-7-sulfonamido)-N-(1-methyl-2-oxo-1,2-dihydropyridin-4-yl)acetamide] | 34 | 6.60 | –
7 | CC(C)(CO)N1CCOc2cc(NC(=O)[C@@H]3CCN3S(=O)(=O)c3cc(C(F)F)cc4cn[nH]c34)ccc21 [Example 177] | 177 | 6.71 | –
8 | Cc1cc(S(=O)(=O)N2CC[C@H]2C(=O)Nc2ccn(C)c(=O)c2)c2[nH]nc(Cl)c2c1 [Example 178] | -13 | 6.68 | –
9 | Cc1cc(S(=O)(=O)N(C)CC(=O)Nc2ccc3c(c2)OCCN3C2CCOCC2)c2[nH]c(C#N)cc2c1 [Example 181, 2-((2-cyano-N,5-dimethyl-1H-indole)-7-sulfonamido)-N-(4-(tetrahydro-2H-pyran-4-yl)-3,4-dihydro-2H-benzo[b][1,4]oxazin-7-yl)acetamide] | 195 | 7.02 | –
10 | CN(CC(=O)Nc1ccn(C)c(=O)c1)S(=O)(=O)c1cc(C(F)F)cc2c(F)n[nH]c12 [Example 183, 2-((5-(difluoromethyl)-3-fluoro-N-methyl-1H-indazole)-7-sulfonamido)-N-(1-methyl-2-oxo-1,2-dihydropyridin-4-yl)acetamide] | -15 | 6.64 | –
11 | O=C(Nc1ccc2c(c1)OCCN2C1COC1)[C@@H]1CCN1S(=O)(=O)c1cc(C(F)F)cc2c(F)n[nH]c12 [Example 184, (S)-1-((5-(difluoromethyl)-3-fluoro-1H-indazol-7-yl)sulfonyl)-N-(4-(oxetan-3-yl)-3,4-dihydro-2H-benzo[b][1,4]oxazin-7-yl)azetidine-2-carboxamide] | 36 | 6.83 | –
12 | O=C(Nc1ccc2c(c1)OCCN2C1CCOCC1)[C@@H]1CCN1S(=O)(=O)c1cc(C(F)F)cc2c(F)n[nH]c12 [Example 185] | 114 | 6.74 | –
13 | Cn1ccc(NC(=O)[C@@H]2CCN2S(=O)(=O)c2cc(C=O)cc3c(F)n[nH]c23)cc1=O [Example 186, (S)-1-((3-fluoro-5-formyl-1H-indazol-7-yl)sulfonyl)-N-(1-methyl-2-oxo-1,2-dihydropyridin-4-yl)azetidine-2-carboxamide] | 153 | 5.98 | –
14 | Cc1cc(S(=O)(=O)N2CC[C@H]2C(=O)Nc2ccn(C)c(=O)c2)c2[nH]c(C#N)cc2c1 [Example 187, (S)-1-((2-cyano-5-methyl-1H-indol-7-yl)sulfonyl)-N-(1-methyl-2-oxo-1,2-dihydropyridin-4-yl)azetidine-2-carboxamide] | -2 | 6.87 | –
15 | Cc1cc(S(=O)(=O)N2CC[C@@H]2C(=O)Nc2ccn(C)c(=O)c2)c2[nH]c(C#N)cc2c1 [Example 188, (R)-1-((2-cyano-5-methyl-1H-indol-7-yl)sulfonyl)-N-(1-methyl-2-oxo-1,2-dihydropyridin-4-yl)azetidine-2-carboxamide] | 5 | 5.05 | –
16 | Cc1cc(S(=O)(=O)N(C)CC(=O)Nc2ccc3c(c2)OCCN3C2COC2)c2[nH]c(C#N)cc2c1 [Example 189] | 142 | 7.12 | 0.018
17 | O=C(Nc1ccc(N2CCOCC2)c(Cl)c1)[C@@H]1CCN1S(=O)(=O)c1cc(C(F)F)cc2cn[nH]c12 [Example 190, (S)—N-(3-chloro-4-morpholinophenyl)-1-((5-(difluoromethyl)-1H-indazol-7-yl)sulfonyl)azetidine-2-carboxamide] | 86 | 6.95 | –
18 | O=C(Nc1ccc(N2CCOCC2)c(Cl)c1)[C@H]1CCN1S(=O)(=O)c1cc(C(F)F)cc2cn[nH]c12 [Example 191, (2R)—N-(3-chloro-4-morpholino-phenyl)-1-[[5-(difluoromethyl)-1H-indazol-7-yl]sulfonyl]azetidine-2-carboxamide] | 98 | < 5.00 | –
19 | Cc1cc(S(=O)(=O)N(C)CC(=O)Nc2ccc(C3CCN(C4COC4)CC3)c(Cl)c2)c2[nH]ncc2c1 [Example 193, N-(3-chloro-4-(1-(oxetan-3-yl)piperidin-4-yl)phenyl)-2-((N,5-dimethyl-1H-indazole)-7-sulfonamido)acetamide] | 73 | 7.28 | –

Row | Structure (SMILES) | Human Liver Microsome Stability [1] [µL/min/mg] | pIC50 (Mtb Lpd) | IC50 (Mtb Lpd) [µM]
20 | Cc1cc(S(=O)(=O)N(C)CC(=O)Nc2ccc(C3CCN(C)CC3)c(Cl)c2)c2[nH]ncc2c1 [Example 194] | 35 | 7.14 | –
21 | Cc1cc(S(=O)(=O)N2CC[C@H]2C(=O)Nc2ccc(N3CCOCC3)c(Cl)c2)c2[nH]c(C#N)cc2c1 [Example 195] | 64 | 6.95 | –
22 | Cc1cc(S(=O)(=O)N(C)CC(=O)Nc2ccc(N3CCOCC3)c(Cl)c2)c2[nH]c(C#N)cc2c1 [Example 198] | 137 | 7.06 | –
23 | Cc1cc(S(=O)(=O)N2CC[C@H]2C(=O)Nc2ccc(OCCN(C)C)c(Cl)c2)c2[nH]ncc2c1 [Example 199] | -7 | 6.73 | 0.045
24 | CC#CCNC(=O)[C@@H]1CCN1S(=O)(=O)c1cc(C)cc2cn[nH]c12 [Example 200] | 13 | 6.42 | –
25 | C#CCNC(=O)[C@@H]1CCN1S(=O)(=O)c1cc(C)cc2cn[nH]c12 [Example 201] | 14 | 6.65 | –
26 | Cc1cc(S(=O)(=O)N2CC[C@H]2C(=O)NCC#N)c2[nH]ncc2c1 [Example 202] | 4 | 6.49 | –
27 | Cc1cc(S(=O)(=O)N(C)CC(=O)NCC#Cc2ccccc2)c2[nH]ncc2c1 [Example 203] | 129 | 7.37 | –
28 | CC#CCNC(=O)CN(C)S(=O)(=O)c1cc(C)cc2cn[nH]c12 [Example 204] | 19 | 7.35 | 0.024
29 | Cc1cc(S(=O)(=O)N2CC[C@H]2C(=O)NCC#Cc2ccccc2)c2[nH]ncc2c1 [Example 205] | 205 | 6.81 | –
30 | Cc1cc(S(=O)(=O)N2CC[C@H]2C(=O)Nc2ccc3c(c2)OCCN3C2COC2)c2[nH]c(C#N)cc2c1 [Example 206, (S)-1-((2-cyano-5-methyl-1H-indol-7-yl)sulfonyl)-N-(4-(oxetan-3-yl)-3,4-dihydro-2H-benzo[b][1,4]oxazin-7-yl)azetidine-2-carboxamide] | 111 | 7.09 | 0.022
31 | Cc1cc(S(=O)(=O)N2CCC2C(=O)Nc2ccc(OCCN(C)C)c(C)c2)c2[nH]c(C#N)cc2c1 (stereo not shown) [Example 207] | -7 | 6.65 | 0.06
32 | Cc1cc(S(=O)(=O)N(C)CC(=O)Nc2ccc3c(c2)N(C2COC2)CCO3)c2[nH]c(C#N)cc2c1 [Example 208] | 341 | – | 0.015
33 | Cc1cc(S(=O)(=O)N2CC[C@H]2C(=O)Nc2ccc3c(c2)N(C2COC2)CCO3)c2[nH]c(C#N)cc2c1 [Example 209] | 212 | – | 0.033
34 | COc1ccc(NC(=O)CN(C)S(=O)(=O)c2cc(C)cc3cc(C#N)[nH]c23)cc1Cl [Example 211, N-(3-chloro-4-methoxyphenyl)-2-((2-cyano-N,5-dimethyl-1H-indole)-7-sulfonamido)acetamide] | 358 | – | 0.02
35 | CCc1ccc(NC(=O)CN(C)S(=O)(=O)c2cc(C)cc3cc(C#N)[nH]c23)cc1Cl [Example 212] | 210 | – | 0.035
36 | COc1cc(NC(=O)CN(C)S(=O)(=O)c2cc(C)cc3cc(C#N)[nH]c23)ccn1 [Example 214, 2-((2-cyano-N,5-dimethyl-1H-indole)-7-sulfonamido)-N-(2-methoxypyridin-4-yl)acetamide] | 91 | – | 0.021
37 | Cc1cc(S(=O)(=O)N(C)CC(=O)Nc2ccc(C3CC3)c(Cl)c2)c2[nH]c(C#N)cc2c1 [Example 215] | 203 | – | 0.036
